How the values were obtained:
[1] = molecular target: Epidermal growth factor receptor (Homo sapiens, UniProt P00533); test: Inhibition of EGFR (unknown origin) using poly (Glu, Tyr) 4:1 substrate incubated for 30 mins by HTRF assay
[2] = molecular target: Hepatocyte growth factor receptor (Homo sapiens, UniProt P08581); test: Inhibition of c-Met (unknown origin) using poly (Glu, Tyr) 4:1 substrate incubated for 30 mins by HTRF assay
[3] = test system: A549; test: Cytotoxicity against human A549 cells after 72 hrs by MTT assay; conditions: A549, 72 h
[4] = Cytotoxicity against human H460 cells after 72 hrs by MTT assay; conditions: NCI-H460, 72 h
[5] = molecular target: Vascular endothelial growth factor receptor 2 (Homo sapiens, UniProt P35968); test: Inhibition of KDR (unknown origin) using poly (Glu, Tyr) 4:1 substrate incubated for 30 mins by HTRF assay
Vascular endothelial growth factor receptor 2, sequence (P35968 whole entry): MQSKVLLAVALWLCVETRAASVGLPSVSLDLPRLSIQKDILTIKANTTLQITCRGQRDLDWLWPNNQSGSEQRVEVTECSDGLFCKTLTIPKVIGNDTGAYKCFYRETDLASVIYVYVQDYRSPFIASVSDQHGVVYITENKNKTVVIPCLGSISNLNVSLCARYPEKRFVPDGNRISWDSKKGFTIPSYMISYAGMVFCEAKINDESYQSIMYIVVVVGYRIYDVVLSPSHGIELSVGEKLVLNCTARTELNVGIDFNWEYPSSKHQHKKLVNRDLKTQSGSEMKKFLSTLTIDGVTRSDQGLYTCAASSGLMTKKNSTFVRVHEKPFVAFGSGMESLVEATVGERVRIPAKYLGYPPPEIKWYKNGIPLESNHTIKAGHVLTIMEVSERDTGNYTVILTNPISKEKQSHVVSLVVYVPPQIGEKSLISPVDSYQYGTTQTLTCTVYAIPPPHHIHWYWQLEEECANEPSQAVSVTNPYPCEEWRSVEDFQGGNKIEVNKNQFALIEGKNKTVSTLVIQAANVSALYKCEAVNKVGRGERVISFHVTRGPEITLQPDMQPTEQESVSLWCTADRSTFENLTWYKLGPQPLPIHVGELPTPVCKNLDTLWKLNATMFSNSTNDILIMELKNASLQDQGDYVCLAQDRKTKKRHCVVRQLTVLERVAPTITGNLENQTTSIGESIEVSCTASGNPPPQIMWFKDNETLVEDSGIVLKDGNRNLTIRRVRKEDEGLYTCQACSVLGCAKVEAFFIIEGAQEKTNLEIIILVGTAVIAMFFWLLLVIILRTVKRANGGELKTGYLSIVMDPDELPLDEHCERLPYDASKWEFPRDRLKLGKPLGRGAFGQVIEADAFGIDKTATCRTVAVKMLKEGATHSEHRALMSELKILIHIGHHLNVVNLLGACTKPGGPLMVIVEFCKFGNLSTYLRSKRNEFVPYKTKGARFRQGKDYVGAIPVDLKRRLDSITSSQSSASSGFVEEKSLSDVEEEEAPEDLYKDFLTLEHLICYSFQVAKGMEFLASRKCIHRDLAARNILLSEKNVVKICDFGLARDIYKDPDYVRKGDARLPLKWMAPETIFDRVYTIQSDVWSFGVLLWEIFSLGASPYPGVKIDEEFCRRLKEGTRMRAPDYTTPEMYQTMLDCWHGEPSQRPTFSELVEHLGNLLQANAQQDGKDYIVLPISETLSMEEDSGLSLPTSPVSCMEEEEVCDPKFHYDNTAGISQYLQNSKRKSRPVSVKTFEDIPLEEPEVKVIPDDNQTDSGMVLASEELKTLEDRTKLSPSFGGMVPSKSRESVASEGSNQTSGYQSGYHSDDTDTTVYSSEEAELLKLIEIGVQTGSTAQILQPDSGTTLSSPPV

[6] = test system: HT-29; test: Cytotoxicity against human HT-29 cells after 72 hrs by MTT assay; conditions: HT-29, 72 h
[7] = Cytotoxicity against human MKN45 cells after 72 hrs by MTT assay; conditions: MKN-45, 72 h
[8] = Cytotoxicity against human U87MG cells after 72 hrs by MTT assay; assay type: functional, cell-based, U-87MG ATCC; conditions: U-87 MG
[9] = molecular target: Mast/stem cell growth factor receptor Kit (Homo sapiens, UniProt P10721); test: Inhibition of c-Kit (unknown origin) using poly (Glu, Tyr) 4:1 substrate incubated for 30 mins by HTRF assay
Mast/stem cell growth factor receptor Kit, sequence (P10721 whole entry): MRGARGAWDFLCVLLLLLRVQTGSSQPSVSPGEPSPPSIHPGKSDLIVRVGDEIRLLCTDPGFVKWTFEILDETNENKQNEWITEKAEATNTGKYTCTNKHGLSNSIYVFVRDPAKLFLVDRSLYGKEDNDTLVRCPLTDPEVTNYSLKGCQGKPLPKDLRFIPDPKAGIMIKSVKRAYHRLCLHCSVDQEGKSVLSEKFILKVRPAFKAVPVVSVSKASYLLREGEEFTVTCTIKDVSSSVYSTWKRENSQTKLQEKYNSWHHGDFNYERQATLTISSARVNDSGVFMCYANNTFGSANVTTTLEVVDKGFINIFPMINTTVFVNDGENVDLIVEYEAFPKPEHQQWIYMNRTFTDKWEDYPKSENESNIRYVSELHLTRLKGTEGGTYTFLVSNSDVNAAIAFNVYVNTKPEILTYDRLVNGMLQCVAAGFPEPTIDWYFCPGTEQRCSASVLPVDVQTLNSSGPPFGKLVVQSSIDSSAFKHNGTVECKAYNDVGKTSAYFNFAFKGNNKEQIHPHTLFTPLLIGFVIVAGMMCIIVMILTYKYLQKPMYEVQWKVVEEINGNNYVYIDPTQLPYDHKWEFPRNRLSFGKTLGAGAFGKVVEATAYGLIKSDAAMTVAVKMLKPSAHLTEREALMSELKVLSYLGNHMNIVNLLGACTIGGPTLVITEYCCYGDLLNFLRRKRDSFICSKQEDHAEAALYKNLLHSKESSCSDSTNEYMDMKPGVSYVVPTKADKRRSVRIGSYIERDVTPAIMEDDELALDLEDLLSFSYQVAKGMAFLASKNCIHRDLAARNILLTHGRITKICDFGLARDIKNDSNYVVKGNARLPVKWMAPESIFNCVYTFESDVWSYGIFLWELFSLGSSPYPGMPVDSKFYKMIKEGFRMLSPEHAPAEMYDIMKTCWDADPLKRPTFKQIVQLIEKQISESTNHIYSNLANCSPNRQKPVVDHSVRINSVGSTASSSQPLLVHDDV

[10] = molecular target: T1, Receptor-type tyrosine-protein kinase FLT3 (Homo sapiens, UniProt P36888); test: Inhibition of FLT3 (unknown origin) using poly (Glu, Tyr) 4:1 substrate incubated for 30 mins by HTRF assay
T1 sequence (P36888 whole entry): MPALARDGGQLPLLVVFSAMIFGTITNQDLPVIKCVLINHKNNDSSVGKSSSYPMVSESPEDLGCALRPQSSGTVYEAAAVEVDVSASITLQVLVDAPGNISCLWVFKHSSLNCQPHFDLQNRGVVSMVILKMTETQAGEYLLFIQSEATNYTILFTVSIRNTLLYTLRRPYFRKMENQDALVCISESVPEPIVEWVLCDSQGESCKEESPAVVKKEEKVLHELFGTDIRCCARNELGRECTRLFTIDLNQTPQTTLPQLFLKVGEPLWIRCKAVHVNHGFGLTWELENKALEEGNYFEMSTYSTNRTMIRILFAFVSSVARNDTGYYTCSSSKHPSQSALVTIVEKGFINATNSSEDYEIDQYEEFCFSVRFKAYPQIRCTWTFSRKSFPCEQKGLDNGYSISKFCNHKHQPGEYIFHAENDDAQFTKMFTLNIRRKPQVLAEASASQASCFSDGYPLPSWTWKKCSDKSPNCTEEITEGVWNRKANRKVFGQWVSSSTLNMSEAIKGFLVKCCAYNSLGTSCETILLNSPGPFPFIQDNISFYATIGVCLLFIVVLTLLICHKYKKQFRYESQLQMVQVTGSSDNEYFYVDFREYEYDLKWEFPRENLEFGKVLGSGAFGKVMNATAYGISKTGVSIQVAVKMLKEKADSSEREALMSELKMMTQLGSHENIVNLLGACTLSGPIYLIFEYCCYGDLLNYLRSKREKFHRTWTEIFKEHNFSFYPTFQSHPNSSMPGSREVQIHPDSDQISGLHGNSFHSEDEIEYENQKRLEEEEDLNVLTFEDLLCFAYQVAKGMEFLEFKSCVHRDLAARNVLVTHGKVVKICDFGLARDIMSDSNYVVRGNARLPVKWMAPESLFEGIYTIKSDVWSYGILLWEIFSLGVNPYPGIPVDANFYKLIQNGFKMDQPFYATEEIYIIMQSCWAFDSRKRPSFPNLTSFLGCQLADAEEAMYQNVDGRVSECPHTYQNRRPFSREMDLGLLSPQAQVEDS

[11] = molecular target: Platelet-derived growth factor receptor beta (Homo sapiens, UniProt P09619); test: Inhibition of PDGFRbeta (unknown origin) using poly (Glu, Tyr) 4:1 substrate incubated for 30 mins by HTRF assay

Hepatocyte growth factor receptor, sequence (P08581 whole entry): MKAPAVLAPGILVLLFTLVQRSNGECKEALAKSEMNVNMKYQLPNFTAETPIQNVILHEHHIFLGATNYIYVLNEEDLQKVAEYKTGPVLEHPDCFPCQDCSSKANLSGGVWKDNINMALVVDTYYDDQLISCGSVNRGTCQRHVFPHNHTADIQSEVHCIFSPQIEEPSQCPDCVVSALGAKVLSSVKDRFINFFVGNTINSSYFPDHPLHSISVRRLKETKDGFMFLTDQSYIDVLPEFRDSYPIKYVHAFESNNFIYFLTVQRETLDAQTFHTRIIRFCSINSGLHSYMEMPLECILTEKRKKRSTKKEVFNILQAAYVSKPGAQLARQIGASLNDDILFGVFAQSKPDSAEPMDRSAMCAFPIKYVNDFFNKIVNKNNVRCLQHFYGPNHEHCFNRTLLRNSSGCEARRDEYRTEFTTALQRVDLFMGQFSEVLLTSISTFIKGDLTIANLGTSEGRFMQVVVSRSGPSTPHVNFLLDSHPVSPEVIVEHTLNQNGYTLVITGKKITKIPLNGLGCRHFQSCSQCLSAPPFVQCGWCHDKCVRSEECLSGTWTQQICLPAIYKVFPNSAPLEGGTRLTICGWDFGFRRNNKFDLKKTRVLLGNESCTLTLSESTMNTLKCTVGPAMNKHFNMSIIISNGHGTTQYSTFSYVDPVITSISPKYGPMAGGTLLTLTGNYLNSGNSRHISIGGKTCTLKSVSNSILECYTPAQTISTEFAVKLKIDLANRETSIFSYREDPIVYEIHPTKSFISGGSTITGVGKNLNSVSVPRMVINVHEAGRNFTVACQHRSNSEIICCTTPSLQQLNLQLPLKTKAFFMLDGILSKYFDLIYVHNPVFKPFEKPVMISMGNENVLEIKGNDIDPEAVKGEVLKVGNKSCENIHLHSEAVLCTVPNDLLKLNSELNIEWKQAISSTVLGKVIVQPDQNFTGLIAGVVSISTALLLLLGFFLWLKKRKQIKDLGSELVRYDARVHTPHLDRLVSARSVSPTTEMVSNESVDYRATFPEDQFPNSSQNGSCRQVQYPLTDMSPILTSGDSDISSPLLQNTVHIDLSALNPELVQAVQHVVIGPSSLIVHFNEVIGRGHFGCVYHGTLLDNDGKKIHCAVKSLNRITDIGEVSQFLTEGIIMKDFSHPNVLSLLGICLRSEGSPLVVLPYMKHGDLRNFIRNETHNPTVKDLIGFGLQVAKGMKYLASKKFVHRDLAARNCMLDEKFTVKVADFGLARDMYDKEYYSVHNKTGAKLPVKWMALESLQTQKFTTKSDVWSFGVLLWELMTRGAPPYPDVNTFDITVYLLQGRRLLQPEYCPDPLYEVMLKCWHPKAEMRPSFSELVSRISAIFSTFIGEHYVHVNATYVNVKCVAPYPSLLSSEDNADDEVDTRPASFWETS
Epidermal growth factor receptor, sequence (P00533 whole entry): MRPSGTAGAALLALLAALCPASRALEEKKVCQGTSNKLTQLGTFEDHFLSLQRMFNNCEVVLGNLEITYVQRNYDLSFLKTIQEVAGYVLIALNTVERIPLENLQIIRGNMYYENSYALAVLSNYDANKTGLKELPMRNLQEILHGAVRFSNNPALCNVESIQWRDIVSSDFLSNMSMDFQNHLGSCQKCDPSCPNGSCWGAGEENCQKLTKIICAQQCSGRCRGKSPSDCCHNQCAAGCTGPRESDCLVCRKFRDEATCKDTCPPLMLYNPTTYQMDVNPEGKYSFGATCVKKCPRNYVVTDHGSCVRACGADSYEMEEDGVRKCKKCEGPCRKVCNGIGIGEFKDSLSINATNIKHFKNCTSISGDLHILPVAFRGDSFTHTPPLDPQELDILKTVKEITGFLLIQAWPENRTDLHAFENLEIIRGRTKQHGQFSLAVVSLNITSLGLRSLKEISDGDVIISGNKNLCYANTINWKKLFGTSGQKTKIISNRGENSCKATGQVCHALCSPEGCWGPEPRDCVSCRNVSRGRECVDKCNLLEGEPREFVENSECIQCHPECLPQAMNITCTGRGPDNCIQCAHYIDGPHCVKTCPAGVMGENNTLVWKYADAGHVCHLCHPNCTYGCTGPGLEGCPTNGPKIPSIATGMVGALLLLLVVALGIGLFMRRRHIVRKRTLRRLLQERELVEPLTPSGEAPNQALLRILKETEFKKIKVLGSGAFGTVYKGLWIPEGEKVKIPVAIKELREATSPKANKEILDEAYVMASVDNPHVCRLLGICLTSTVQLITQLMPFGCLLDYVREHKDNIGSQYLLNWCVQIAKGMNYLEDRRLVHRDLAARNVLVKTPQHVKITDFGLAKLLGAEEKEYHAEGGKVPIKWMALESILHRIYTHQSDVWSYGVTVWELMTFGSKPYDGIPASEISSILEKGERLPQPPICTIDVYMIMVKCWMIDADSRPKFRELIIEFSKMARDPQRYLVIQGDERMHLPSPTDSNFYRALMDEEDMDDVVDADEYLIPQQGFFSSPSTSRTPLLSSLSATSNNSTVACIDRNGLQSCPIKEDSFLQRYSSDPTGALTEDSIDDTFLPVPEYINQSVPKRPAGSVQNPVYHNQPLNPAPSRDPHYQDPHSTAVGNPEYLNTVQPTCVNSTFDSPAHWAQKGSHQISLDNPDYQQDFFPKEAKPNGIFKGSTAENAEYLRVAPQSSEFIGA

SMILES: COc1cc2c(Oc3ccc(NC(=O)c4nnn(-c5ccc(F)cc5)c4C(F)(F)F)cc3F)ccnc2cc1OCCCN1CCCC1
- IC50 [1]: > 10000 nM
- IC50 [2]: 1.04 nM
- IC50 [3]: 80 nM
- IC50 [4]: 150 nM
- IC50 [5]: 65.4 nM
- IC50 [6]: 120 nM
- IC50 [7]: 21 nM
- IC50 [8]: 850 nM
- IC50 [9]: 4.02 nM
- IC50 [10]: 8.78 nM
- IC50 [11]: 16.3 nM
